Reference: patent publication US11447525B2 (NIIGATA UNIVERSITY, priority 2018, dated 2022)
Non-standard residues stand in square brackets, D forms with d. Residues, ends and D or L forms follow the SMILES beside them. *: point of attachment. 5FAM = O=C1OC2(c3ccc(O)cc3Oc3cc(O)ccc32)c2ccc(C(=O)*)cc21; NMeR = CN[C@@H](CCCNC(=N)N)C(=O)O

Legend:
[1] = system: scirrhous pancreatic cancer model mice (BxPC3, MIA-Paca2, AsPC1 or Capan-2 cells with hMSC); assay: Selective absorption of FAM-NmLL in tissues of scirrhous pancreatic cancer model mice (Test Example 7); assay type: in vivo, NOD/SCID, KPC and KC mouse; settings: 200 μg into the caudal vein, 30 minutes after administration; all of the mouse models
Procedure: FAM-NmLL was administered to pancreatic cancer model mice having scirrhous carcinoma, and the selective absorption of the FAM-NmLL in various tissues of the mouse was confirmed. A scirrhous pancreatic cancer model mouse having scirrhous carcinoma that forms abundant tumor-stroma interactions was produced in accordance with the method disclosed in the above Reference Document 1. Specifically, a 6-week old NOD/SCID mouse (CLEA Japan Inc., Japan), a Pdx1-Cre/KRAS^G12D (KC) mouse having a mutation in K-Ras, and a Pdx1-Cre/KRAS^G12D; p53^R172H (KPC) mouse having pancreatic cancer-specific mutations in K-Ras and p53 were raised under pathogen-free conditions. […]
FAM-NmLL (200 μg) was injected into the caudal vein of each of the obtained scirrhous pancreatic cancer model mice. Subsequently, the pharmacokinetics of the peptide 30 minutes after administration were analyzed by tissue analysis of the freshly dissected specimen of the peptide-administered mouse. […]

[2] = system: pancreatic cancer cells (BxPC3, PK-8, MIA-Paca2); assay: Accumulation of FAM-labeled peptides in cells, inverted fluorescence microscope (Test Example 2); assay type: cell-based, human; settings: 2 μM, 37° C., 2 hours
Procedure: Tests were conducted to confirm the accumulation of each peptide in each of the cells shown below in Table 8. Further, among the peptides shown below in Table 9, the FAM-PCPP11 used in Test Example 1, the LL peptide in which the N-terminus had been FAM-labeled (FAM-LL), and the Ld peptide in which the N-terminus had been FAM-labeled (FAM-Ld) were used.
Each of FAM-PCPP11, FAM-LL and FAM-Ld was added to each of the cells shown in Table 8 in an amount sufficient to achieve a final concentration in the medium of 2 μM, and following cultivation of the cells at 37° C. for 2 hours, the sample was washed 3 times with a medium containing no peptide to remove any peptide within the medium. Subsequently, the incorporation of each of the peptides into each of the cells was evaluated visually using an inverted fluorescence microscope. Prior to the microscopic examination, the culture supernatant to which the peptide had been added was removed, and following washing three times with 1×PBS (−), a trypsin treatment was conducted to remove the adherent cells, and the resultant was immediately transferred into a new 96-well plate and once again suspended in fresh culture solution before the microscopic examination was performed. In FIG. 8A, “L” indicates the cells to which FAM-PCPP11 was added, “LL” indicates the cells to which FAM-LL was added, and “Ld” indicates the cells to which FAM-Ld was added. Further, the fluorescent images in the BxPC3 cells indicate a representative example of pancreatic cancer cells.
Furthermore, FIG. 8B is a graph quantifying the fluorescence detected in each of the above cells in FIG. 8A, with the fluorescence intensity detected in each cell shown relative to a value of 1.0 for the fluorescence detected in the H2110 cells, which is a cell line derived from an adenocarcinoma in a human non-small-cell lung cancer system, to which each of the FAM-PCPP11 and FAM-LL peptides had been added.
Further, each of FAM-PCPP11, FAM-LL and FAM-NmLL was added to each of the cells shown in Table 8 in an amount sufficient to achieve a final concentration in the medium of 2 μM, and following cultivation of the cells at 37° C. for 2 hours, the sample was washed 3 times with a medium containing no peptide to remove any peptide within the medium. Subsequently, the incorporation of each of the peptides into each of the cells was evaluated visually using an inverted fluorescence microscope. […]

In the case of C[C@@H](O)[C@H](NC(=O)[C@@H](NC(=O)[C@@H]1CCCN1C(=O)[C@H](CCCNC(=N)N)NC(=O)[C@H](CCCNC(=N)N)NC(=O)CNC(=O)[C@@H]1CCCN1C(=O)[C@H](CCCCN)NC(=O)[C@H](Cc1c[nH]cn1)NC(=O)[C@H](Cc1c[nH]c2ccccc12)NC(=O)[C@@H](NC(=O)[C@@H](NC(=O)[C@@H]1CCCN1C(=O)[C@H](CCCNC(=N)N)N(C)C(=O)[C@H](CCCNC(=N)N)NC(=O)c1ccc2c(c1)C(=O)OC21c2ccc(O)cc2Oc2cc(O)ccc21)[C@@H](C)O)[C@@H](C)O)[C@@H](C)O)C(=O)N[C@@H](Cc1c[nH]c2ccccc12)C(=O)N[C@@H](Cc1c[nH]cn1)C(=O)N[C@@H](CCCCN)C(=O)N1CCC[C@H]1C(=O)O [FAM-NmLL] (5FAM-R[NMeR]PTTWHKPGRRPTTWHKP-OH; C-terminus assumed), the “absorption into the cancer cell nests inside the tumor tissues” value [1] is reported as “strong absorption”, the “absorption into the tumor tissues (main lesions and metastatic lesions)” value [1] is reported as “strong absorption” and the “fluorescence compared with the sample containing FAM-PCPP11” value [2] is reported as “stronger fluorescence”.
